Laboratory results reported in PMC3401633 (Bioorganic & medicinal chemistry letters, 2011).

Molecular target: human isoprenylcysteine carboxyl methyltransferase (hIcmt) (Homo sapiens, UniProt O60725)
Test: vapor diffusion assay
Assay type: biochemical
Settings: VDA

Chain of human isoprenylcysteine carboxyl methyltransferase (hIcmt) (O60725 whole entry, the tested form may be a part): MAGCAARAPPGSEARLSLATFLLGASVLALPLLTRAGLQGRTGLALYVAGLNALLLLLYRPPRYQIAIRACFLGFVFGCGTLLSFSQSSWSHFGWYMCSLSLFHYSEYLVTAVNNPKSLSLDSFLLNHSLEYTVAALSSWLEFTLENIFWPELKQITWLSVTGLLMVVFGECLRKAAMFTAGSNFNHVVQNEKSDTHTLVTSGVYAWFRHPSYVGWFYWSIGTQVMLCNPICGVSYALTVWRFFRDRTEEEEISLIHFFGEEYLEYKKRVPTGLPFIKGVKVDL

Compound: COC(=O)[C@H](CSC/C=C(\C)CC/C=C(\C)CCC=C(C)C)NS(=O)(=O)c1cccs1 [Compound 10]
- hIcmt inhibition in words: remarkably poor hIcmt inhibitor

Compound: CC(C)=CCC/C(C)=C/CC/C(C)=C/CSC[C@H](NS(=O)(=O)c1c(C)c(C)c(C)c(C)c1C)C(=O)O [Compound 6a]
- hIcmt inhibition in words: poor hIcmt inhibitors
